Read-outs that look alike come from different tables or passages of the source.
Assays:
bcl-2 = assay: Bcl-2 expression and phosphorylation assay (Western blot mobility shift); type: cell-based; conditions: for bcl-2 phosphorylation: immunoblotting, slower migrating band vs vehicle control, cell line not stated
Method: Analysis of bcl-2 protein expression was performed using a Western blot assay as previously described (Haldar, S. et al. 1996. Cancer Res. 56:1253; Haldar, S. et al. 1995. Proc. Natl. Acad. Sci. USA 92:4507-4511). Protein identification was made using a monoclonal bcl-2 primary antibody (DAKO Corporation) and secondary goat anti-mouse horseradish peroxidase conjugated antibody (Bio-Rad Laboratories, Richmond, CA). The phosphorylation of bcl-2 was determined by mobility shifts in the Western bolt as described by Haldar (Haldar, S. et al. 1996. Cancer Res. 56:1253; Haldar, S. et al. 1995. Proc. Natl. Acad. Sci. USA 92:4507-4511).

MCF-7 tumor cells = assay: Cell cycle analysis by flow cytometry; type: cell-based
Method: Cells were treated for 24 hours, incubated with 10 μM BrdU for 45 minutes at 37° C. Cells were then washed with ice-cold PBS, resuspended in 200 μl PBS and fixed with cold 70% ethanol. The cells were resuspended, incubated for 30 minutes in 2 N HCl/0.5% Triton X-100 in PBS, and neutralized by rinsing once in 0.1 M sodium tetraborate (pH 8.5). Fluorescein isothiocyanate (FITC)-conjugated anti-BrdU antibody (Becton Dickinson) was added (10 μg/sample) in 50 μl of 0.5% Tween 20/1% BSA in PBS and incubated for 30 minutes. The cells were washed and resuspended in 1 ml of PBS containing 5 μg/ml propidium iodide. Fluorescence intensity was determined by quantitative flow cytometry and profiles were generated on a Becton Dickinson FACScan. A minimum of 10,000 cells were analyzed.

microtubule structure [1] = assay: Microtubule assay (indirect immunofluorescence); type: cell-based
Method: Microtubule structure was assessed by indirect immunofluorescence as previously described (Zhang, C. C. et al. 1998. Oncogene 16:1617-1624). Cells were grown on coverslips and fixed in ice-cold methanol at −20° C. after drug treatment. The cells were then incubated with a 1:100 dilution of monoclonal anti-alpha-tubulin antibody (Clone DM 1A, mouse ascites fluid; Sigma) in 3% BSA in PBS for 30 minutes and washed in 3% BSA in PBS for 10 minutes. This was followed by incubation with FITC-goat anti-mouse IgG (1:50 dilution) as a secondary antibody for 30 minutes and washed in 3% BSA/PBS and visualized under a epifluorescent microscope (Zeiss AXIOSKOP) using a plan-NEOFLUAR 100 X oil immersion objective. The photographs were captured on a cooled CCD camera (DAGE-MTI) using Scion Image.

MCF-7 cells = test system: MCF-7 cells
Method: The Apoalert Annexin V-EGFP method (CLONTECH, Palo Alto, Calif.) was used to assess for apoptosis. Briefly, tumor cells were treated for 2 hours and cells were washed with fixing solution and stained with Annexin V-EGFP and propidium iodide for 15 minutes in the dark. Cells were viewed using a Nikin Eclipse TE-200 (Nikon Corporation, Tokyo, Japan) inverted fluorescent microscope. Photographs were captured using a SPOT digital camera (Diagnostic, Inc., Sterling Heights, Mich.) in combination with SPOT […] (Pharmingen, San Diego, Calif.). Cells (1×10^6 per dish) were treated for 12 hours, washed with PBS, and fixed in 1% paraformaldehyde in ice for 30 minutes. After fixation, cells were washed twice with PBS and fixed in 70% ethanol. The pellets were washed and resuspended in 50 μl of the DNA labeling solution containing Br-dUTP and TdT enzyme and incubated for 60 minutes at 37° C. After incubation, the pellets were washed, incubated with FITC labeled anti-BrdU antibody in the dark for 30 minutes at room temperature, and stained with propidium iodide and RNase. The stained cells were analyzed by flow cytometry after 30 minutes. Cell viability was assessed by the tetrazolium dye method as previously described (Scudiero, D.A. et al. 1988. Cancer Res. 48:4827-4833).

microtubule structure [2] = conditions: stated as 'has been shown'; cited from earlier work

Structure (SMILES): O=C(CC(O)c1ccc(O[C@@H]2O[C@H](CO)[C@@H](O)[C@H](O)[C@H]2O)cc1)c1ccc(O)cc1O (single isomer, unassigned; peak 1) [peak 1, 1-propanone-1-(2,4-dihydroxyphenyl)-3-hydroxy-3-(4′-hydroxyphenyl-4′o-beta-D-glucapyranoside)]
- bcl-2 phosphorylation (bcl-2): induce bcl-2 phosphorylation

Structure (SMILES): O=C(CC(O)c1ccc(O)cc1)c1ccc(O[C@@H]2O[C@H](CO)[C@@H](O)[C@H](O)[C@H]2O)cc1O (single isomer, unassigned; peak 2) [peak 2, 1-propanone-1-(2,4-dihydroxyphenyl-4′-o-beta-D-glucopyranoside)-3-hydroxy-3-(4′-hydroxyphenyl)]
- bcl-2 phosphorylation (bcl-2): induce bcl-2 phosphorylation

Structure (SMILES): O=C(CC(O)c1ccc(O)cc1)c1ccc(O)cc1O (stereo not shown) [DC, 1-propanone-1-(2,4-dihydroxyphenyl)-3-hydroxy-3-(4′-hydroxyphenyl)]
- phosphorylation of bcl-2 (bcl-2; DUPro-1 tumor cells): induce phosphorylation of bcl-2
- phosphorylation of bcl-2 (bcl-2; MCF-7 tumor cells): induce phosphorylation of bcl-2
- bcl-2 phosphorylation (bcl-2): induce bcl-2 phosphorylation
- G2/M cell cycle arrest (MCF-7 tumor cells): induced a G2/M cell cycle arrest
- effect on microtubule structure (microtubule structure [1]): induce microtubule fragmentation
- IC50 (MCF-7 cells; read-out: IC50, decrease of cell viability, 72 hours): 13 µM
- apoptosis (extracellular phosphatidylserine detection) (MCF-7 cells; similar to 10 μM camptothecin control): induced apoptosis

Structure (SMILES): CC(=O)O[C@H]1C(=O)[C@@]2(C)[C@H]([C@H](OC(=O)c3ccccc3)[C@]3(O)C[C@H](OC(=O)[C@H](O)[C@@H](NC(=O)c4ccccc4)c4ccccc4)C(C)=C1C3(C)C)[C@]1(OC(C)=O)CO[C@@H]1C[C@@H]2O [paclitaxel]
- effect on microtubule structure (microtubule structure [2]): induce microtubule bundles

— US6498195B2, “Use of 1-propanone-1-(2,4-dihydroxyphenyl)-3-hydroxy-3-(4′-hydroxyphenyl) as an anticarcinogenic agent” (Rutgers, The State University of New Jersey, priority 2000, dated 2002)
